Test results reported in ChEMBL document CHEMBL4229518, “New β-lactam - Tetramic acid hybrids show promising antibacterial activities” (Bioorg Med Chem Lett, 2018).
≈ marks a conversion by molar mass, not a printed value.

What was measured:
Format in all cases: functional
Bacillus subtilis = experiment: Antimicrobial activity against Bacillus subtilis ATCC 23857 after 18 to 20 hrs by microbroth dilution method
Bacillus anthracis = experiment: Antimicrobial activity against Bacillus anthracis Sterne 34F2 after 18 to 20 hrs by microbroth dilution method
Bacillus cereus = experiment: Antimicrobial activity against Bacillus cereus ATCC 14579 after 18 to 20 hrs by microbroth dilution method
Enterococcus faecalis = experiment: Antimicrobial activity against Enterococcus faecalis ATCC 33186 after 18 to 20 hrs by microbroth dilution method
Staphylococcus aureus [1] = experiment: Antimicrobial activity against methicillin-susceptible Staphylococcus aureus ATCC 29213 after 18 to 20 hrs by microbroth dilution method
Staphylococcus aureus [2] = experiment: Antimicrobial activity against methicillin-susceptible Staphylococcus aureus NRS70 after 18 to 20 hrs by microbroth dilution method
Streptococcus pneumoniae = experiment: Antimicrobial activity against Streptococcus pneumoniae R6 after 18 to 20 hrs by microbroth dilution method
Streptococcus pyogenes = experiment: Antimicrobial activity against Streptococcus pyogenes ATCC 700294 after 18 to 20 hrs by microbroth dilution method; details: M1 GAS
Acinetobacter baumannii = experiment: Antimicrobial activity against Acinetobacter baumannii ATCC 19606 after 18 to 20 hrs by microbroth dilution method; details: ATCC 19606 = CIP 70.34 = JCM 6841
Enterobacter cloacae = experiment: Antimicrobial activity against Enterobacter cloacae ATCC 13047 after 18 to 20 hrs by microbroth dilution method; details: subsp. cloacae ATCC 13047
Escherichia coli [3] = experiment: Antimicrobial activity against Escherichia coli BW25113 after 18 to 20 hrs by microbroth dilution method
Escherichia coli [4] = experiment: Antimicrobial activity against tolC deficient Escherichia coli JW5503-1 after 18 to 20 hrs by microbroth dilution method
Klebsiella pneumoniae = experiment: Antimicrobial activity against Klebsiella pneumoniae ATCC 33495 after 18 to 20 hrs by microbroth dilution method
Pseudomonas aeruginosa = experiment: Antimicrobial activity against Pseudomonas aeruginosa PAO1 after 18 to 20 hrs by microbroth dilution method
Proteus mirabilis = experiment: Antimicrobial activity against Proteus mirabilis ATCC 25933 after 18 to 20 hrs by microbroth dilution method
[5] = system: Stenotrophomonas maltophilia; experiment: Antimicrobial activity against Stenotrophomonas maltophilia ATCC 700475 after 18 to 20 hrs by microbroth dilution method

| Compound | MIC (Bacillus subtilis) | MIC (Bacillus anthracis) | MIC (Bacillus cereus) | MIC (Enterococcus faecalis) | MIC (Staphylococcus aureus [1]) | MIC (Staphylococcus aureus [2]) | MIC (Streptococcus pneumoniae) | MIC (Streptococcus pyogenes) | MIC (Acinetobacter baumannii) | MIC (Enterobacter cloacae) | MIC (Escherichia coli [3]) | MIC (Escherichia coli [4]) | MIC (Klebsiella pneumoniae) | MIC (Pseudomonas aeruginosa) | MIC (Proteus mirabilis) | MIC [5] |
| --- | --- | --- | --- | --- | --- | --- | --- | --- | --- | --- | --- | --- | --- | --- | --- | --- |
| CC1=C(C(=O)O)N2C(=O)[C@@H](NC(=O)[C@H](NC(=O)CCNC(=O)C3=C(O)C(CC(C)C)NC3=O)c3ccccc3)[C@H]2SC1 (some centres not stated) | 6.25 mg/L (≈ 10.4 µM) | 100 mg/L (≈ 167 µM) | > 200 mg/L | > 200 mg/L | 3.13 mg/L (≈ 5.22 µM) | 50 mg/L (≈ 83.4 µM) | 12.5 mg/L (≈ 20.8 µM) | 12.5 mg/L (≈ 20.8 µM) | > 200 mg/L | > 200 mg/L | 200 mg/L (≈ 334 µM) | 200 mg/L (≈ 334 µM) | 200 mg/L (≈ 334 µM) | > 200 mg/L | 50 mg/L (≈ 83.4 µM) | > 200 mg/L |
| CC(C)CC1NC(=O)C(C(=O)NCCCC(=O)N[C@@H](C(=O)N[C@@H]2C(=O)N3[C@@H]2SC(C)(C)[C@@H]3C(=O)O)c2ccccc2)=C1O (some centres not stated) | 3.13 mg/L (≈ 5.08 µM) | 3.13 mg/L (≈ 5.08 µM) | 25 mg/L (≈ 40.6 µM) | 25 mg/L (≈ 40.6 µM) | 0.78 mg/L (≈ 1.27 µM) | 50 mg/L (≈ 81.2 µM) | < 0.2 mg/L | 0.39 mg/L (≈ 0.633 µM) | 100 mg/L (≈ 162 µM) | > 200 mg/L | 25 mg/L (≈ 40.6 µM) | 12.5 mg/L (≈ 20.3 µM) | > 200 mg/L | 50 mg/L (≈ 81.2 µM) | 1.56 mg/L (≈ 2.53 µM) | 25 mg/L (≈ 40.6 µM) |
| CC(C)CC1NC(=O)C(C(=O)NCCC(=O)N[C@@H](C(=O)N[C@@H]2C(=O)N3[C@@H]2SC(C)(C)[C@@H]3C(=O)O)c2ccccc2)=C1O (some centres not stated) | 3.13 mg/L (≈ 5.2 µM) | 3.13 mg/L (≈ 5.2 µM) | 25 mg/L (≈ 41.6 µM) | 50 mg/L (≈ 83.1 µM) | 0.78 mg/L (≈ 1.3 µM) | 50 mg/L (≈ 83.1 µM) | < 0.2 mg/L | 0.78 mg/L (≈ 1.3 µM) | 200 mg/L (≈ 332 µM) | > 200 mg/L | 50 mg/L (≈ 83.1 µM) | 25 mg/L (≈ 41.6 µM) | 200 mg/L (≈ 332 µM) | 25 mg/L (≈ 41.6 µM) | 6.25 mg/L (≈ 10.4 µM) | 50 mg/L (≈ 83.1 µM) |
| CC1=C(C(=O)O)N2C(=O)[C@@H](NC(=O)[C@H](NC(=O)C3=C(O)C(CC(C)C)NC3=O)c3ccccc3)[C@H]2SC1 (some centres not stated) | 25 mg/L (≈ 47.3 µM) | 200 mg/L (≈ 378 µM) | > 200 mg/L | 200 mg/L (≈ 378 µM) | 12.5 mg/L (≈ 23.6 µM) | 100 mg/L (≈ 189 µM) | 100 mg/L (≈ 189 µM) | 3.13 mg/L (≈ 5.92 µM) | 100 mg/L (≈ 189 µM) | > 200 mg/L | > 200 mg/L | 100 mg/L (≈ 189 µM) | > 200 mg/L | > 200 mg/L | 100 mg/L (≈ 189 µM) | 100 mg/L (≈ 189 µM) |
| CC(C)CC1NC(=O)C(C(=O)N[C@@H](C(=O)N[C@@H]2C(=O)N3[C@@H]2SC(C)(C)[C@@H]3C(=O)O)c2ccccc2)=C1O (some centres not stated) | 3.13 mg/L (≈ 5.9 µM) | 3.13 mg/L (≈ 5.9 µM) | 12.5 mg/L (≈ 23.6 µM) | 25 mg/L (≈ 47.1 µM) | 0.78 mg/L (≈ 1.47 µM) | 25 mg/L (≈ 47.1 µM) | 0.39 mg/L (≈ 0.735 µM) | 0.39 mg/L (≈ 0.735 µM) | 50 mg/L (≈ 94.2 µM) | > 200 mg/L | 50 mg/L (≈ 94.2 µM) | 6.25 mg/L (≈ 11.8 µM) | 200 mg/L (≈ 377 µM) | 12.5 mg/L (≈ 23.6 µM) | 12.5 mg/L (≈ 23.6 µM) | 6.25 mg/L (≈ 11.8 µM) |
| CC1=C(C(=O)O)N2C(=O)[C@@H](NC(=O)[C@H](N)c3ccccc3)[C@H]2SC1 [CEPHALEXIN ANHYDROUS] | 0.78 mg/L (≈ 2.25 µM) | 3.13 mg/L (≈ 9.01 µM) | > 200 mg/L | 200 mg/L (≈ 576 µM) | 3.13 mg/L (≈ 9.01 µM) | > 200 mg/L | 6.25 mg/L (≈ 18 µM) | 3.13 mg/L (≈ 9.01 µM) | > 200 mg/L | > 200 mg/L | 50 mg/L (≈ 144 µM) | 100 mg/L (≈ 288 µM) | 50 mg/L (≈ 144 µM) | > 200 mg/L | 50 mg/L (≈ 144 µM) | > 200 mg/L |
| CC(C)CC1NC(=O)C(C(=O)NCCC(=O)N[C@@H](C(=O)N[C@@H]2C(=O)N3C(C(=O)O)=C(Cl)CS[C@H]23)c2ccccc2)=C1O (some centres not stated) | 0.78 mg/L (≈ 1.26 µM) | 12.5 mg/L (≈ 20.2 µM) | > 200 mg/L | 100 mg/L (≈ 161 µM) | 0.78 mg/L (≈ 1.26 µM) | 25 mg/L (≈ 40.3 µM) | 0.39 mg/L (≈ 0.629 µM) | 1.56 mg/L (≈ 2.52 µM) | 50 mg/L (≈ 80.6 µM) | > 200 mg/L | 12.5 mg/L (≈ 20.2 µM) | 12.5 mg/L (≈ 20.2 µM) | 50 mg/L (≈ 80.6 µM) | > 200 mg/L | 1.56 mg/L (≈ 2.52 µM) | > 200 mg/L |
